From US20250353825A1, “CANNABICYCLOL DERIVATIVES AND PREPARATION METHODS THEREOF” (priority 2023, published 2025)
≈ marks a conversion by molar mass, not a printed value.

Legend:
Assay type in all cases: cell-based
A549 = test: MTS cell viability assay, A549; conditions: Homo sapiens, Table 7, 72 hours, read-out: IC50 against A549
Protocol: (§1) Primary viability screening: (1) the synthesized compounds 3a to 13d were respectively dissolved in DMSO to prepare a 40 μg/mL cannabicyclol and cannabicyclol derivative solutions.
(§2) (2) A control group: a 200 μL DMSO solvent.
(§3) (3) The solutions of compounds 3a to 13d were diluted in a twofold gradient to obtain cannabicyclol and cannabicyclol derivative solutions at concentrations of 40 μg/mL, 20 μg/mL, 10 μg/mL, 5 μg/mL, 2.5 μg/mL, 1.25 μg/mL, and 0.625 μg/mL, and 0.3125 μg/mL, respectively.
(§4) (4) Three glioblastoma stem cells (GSC-3, GSC-12, and GSC-18), three pancreatic cancer cell-derived stem cells (PANC-1-CSC, BXPC-3-CSC, and ASPC1-CSC), three liver cancer cell-derived stem cells (HepG2-CSC, MHCC97H-CSC, and SMMC7721-CSC), HEK-293T cells, 16 tumor cells (U251, U87, T98G, PANC1, BXPC3, ASPC1, HepG2, MHCC97H, SMMC7721, PC3, SKOV3, MDA-MB231, A549, HCT116, HEC-1B, MKN28), and differentiated glioblastoma stem cells (GSC-3diff and GSC-12diff) derived from GSC-3 and GSC-12 (all of the cells were provided by the Laboratory of Tumor Animal Model Preparation and Application Research, West China Hospital, Sichuan University) were inoculated into a 96-well plate at a concentration of 2×10^4 cells/well, and 100 μL of culture medium was then added to each well; […]
(§5) (10) The absorbance value at 490 nm was measured on an enzyme labeling apparatus, and the IC50 value was calculated.

[1] = tested on: HEK-293T, GSC-3diff, GSC-12diff and 16 tumor cells; test: MTS cell viability assay, summary over HEK-293T, GSC-3diff, GSC-12diff and 16 tumor cells; conditions: summary of Table 7 in words
Protocol: as §1, §2, §3, §4, §5

GSC-3 (3#-GSC) = test: MTS cell viability assay, glioblastoma stem cells GSC-3 (3#-GSC)
Protocol: as §1, §2, §3
(§6) (4) Three glioblastoma stem cells (GSC-3, GSC-12, and GSC-18), three pancreatic cancer cell-derived stem cells (PANC-1-CSC, BXPC-3-CSC, and ASPC1-CSC), three liver cancer cell-derived stem cells (HepG2-CSC, MHCC97H-CSC, and SMMC7721-CSC), HEK-293T cells, 16 tumor cells (U251, U87, T98G, PANC1, BXPC3, ASPC1, HepG2, MHCC97H, SMMC7721, PC3, SKOV3, MDA-MB231, A549, HCT116, HEC-1B, MKN28), and differentiated glioblastoma stem cells (GSC-3diff and GSC-12diff) derived from GSC-3 and GSC-12 (all of the cells were provided by the Laboratory of Tumor Animal Model Preparation and Application Research, West China Hospital, Sichuan University) were inoculated into a 96-well plate at a concentration of 2×10^4 cells/well, and 100 μL of culture medium was then added to each well;
(§7) (5) 2) HEK-293T, GSC-3diff, GSC-12diff, and the 16 tumor cells were added with DMEM, 10% FBS, and 1% double antibody culture medium. Cancer stem cells (CSCs) were added with serum-free stem cell medium consisting of DMEM/F12, EGF (20 ng/mL), bFGF (20 ng/mL), B27 (1×), and 1% double antibody culture medium.
(§8) (6) Inoculated cells were put into a cell culture incubator for 24 hours, and after the cells were well adhered to the wall, the culture medium in the 96-well plate was discarded.
(§9) (7) 200 μL cannabicyclol and cannabicyclol derivatives solutions at different concentrations were added to the cultured cells.
(§10) (8) The experiment was set up with 3 replicates.
(§11) (9) The 96-well plate was placed in a cell culture incubator, and incubation was continued at 37° C. and 5% CO2 for 72 hours. Then, 100 μL of cannabicyclol and cannabicyclol derivative solution per well was discarded (100 μL of DMSO solvent was discarded for the control group), and 20 μL of LMTS (CellTiter AQueous Non-Radioactive Cell Proliferation Assay, #G3581) was mixed and continued to be placed in the cell incubator for 2 hours of incubation.
as §5

MDA-MB231 = test: MTS cell viability assay, MDA-MB231; conditions: Homo sapiens, MDA-MB-231; Table 7, 72 hours; read-out: IC50 against MDA-MB231
Protocol: as §1, §2, §3, §4, §5

HCT116 = test: MTS cell viability assay, HCT116; conditions: Homo sapiens, HCT-116; Table 7, 72 hours; read-out: IC50 against HCT116
Protocol: as §1, §2, §3, §4, §5

SMMC7721 = test: MTS cell viability assay, SMMC7721; conditions: Homo sapiens, SMMC-7721; Table 7, 72 hours; read-out: IC50 against SMMC7721
Protocol: as §1, §2, §3, §4, §5

BXPC3-CSC = test: MTS cell viability assay, BXPC3-CSC; conditions: Table 6, tumor stem cell, 72 hours; read-out: IC50 against BXPC3-CSC
Protocol: as §1, §2, §3, §4, §5

HEK-293T = test: MTS cell viability assay, HEK-293T (293T) normal cells; conditions: Homo sapiens, HEK-293T, 72 h, read-out: IC50 against HEK-293T
Protocol: as §1, §2, §3, §6, §7, §8, §9, §10, §11, §5

[2] = as above; conditions: human; primary viability screening, 72 hours, MTS; test concentration not stated; read-out: Cell viability in 293T (%)
Protocol: as §1, §2, §3, §6, §7, §8, §9, §10, §11, §5

GSC-12 = test: MTS cell viability assay, GSC-12; conditions: GSC12; Table 6, tumor stem cell, 72 hours; read-out: IC50 against GSC-12
Protocol: as §1, §2, §3, §4, §5

PC3 = test: MTS cell viability assay, PC3; conditions: Homo sapiens, PC-3; Table 7, 72 hours; read-out: IC50 against PC3
Protocol: as §1, §2, §3, §4, §5

GSC-12diff = test: MTS cell viability assay, differentiated glioblastoma stem cells GSC-12diff; conditions: Table 7, 72 hours, read-out: IC50 against GSC-12diff
Protocol: as §1, §2, §3, §4, §5

BXPC3 = test: MTS cell viability assay, BXPC3; conditions: Homo sapiens, BXPC-3; Table 7, 72 hours; read-out: IC50 against BXPC3
Protocol: as §1, §2, §3, §4, §5

PANC1-CSC = test: MTS cell viability assay, PANC1-CSC; conditions: Table 6, tumor stem cell, 72 hours; read-out: IC50 against PANC1-CSC
Protocol: as §1, §2, §3, §4, §5

SKOV3 = test: MTS cell viability assay, SKOV3; conditions: Homo sapiens, SK-OV-3; Table 7, 72 hours; read-out: IC50 against SKOV3
Protocol: as §1, §2, §3, §4, §5

ASPC1 = test: MTS cell viability assay, ASPC1; conditions: Homo sapiens, Table 7, 72 hours, read-out: IC50 against ASPC1
Protocol: as §1, §2, §3, §4, §5

For CCCCCc1cc(O)c2c(c1)OC1(C)CCC3C1C2C3(C)C (stereo not drawn) [Compound 3a, cannabicyclol], the IC50 (A549) was > 40 µg/mL, the “inhibitory effects on HEK-293T, GSC-3diff, GSC-12diff and the 16 tumor cells” value [1] was “no significant inhibitory effects” and the IC50 (GSC-3 (3#-GSC); GSC-3, 72 h, read-out: IC50 against GSC-3) was 3.85 µg/mL (≈ 12.2 µM). The “selective anti-glioma stem cell viability” value (GSC-3 (3#-GSC); judged in words from preliminary viability screening against 3#-GSC, 293T and U251) was “a certain degree of selective anti-glioma stem cell viability”, the “Cell viability in 3#-GSC (%)” value (GSC-3 (3#-GSC); primary viability screening, 72 hours, MTS, test concentration not stated) was 20% and the IC50 (MDA-MB231) was > 40 µg/mL. For the same compound, the IC50 (HCT116) was > 40 µg/mL, the IC50 (SMMC7721) was > 40 µg/mL and the IC50 (BXPC3-CSC) was 2.19 µg/mL (≈ 6.96 µM). For the same compound, the IC50 (HEK-293T) was > 40 µg/mL, the viability at 72 h [2] was 82% and the IC50 (GSC-12) was 8.03 µg/mL (≈ 25.5 µM). For the same compound, the IC50 (PC3) was > 40 µg/mL, the IC50 (GSC-12diff) was 29.6 µg/mL (≈ 94.3 µM) and the IC50 (BXPC3) was > 40 µg/mL. For the same compound, the IC50 (PANC1-CSC) was 13 µg/mL (≈ 41.3 µM), the IC50 (SKOV3) was > 40 µg/mL and the IC50 (ASPC1) was > 40 µg/mL.
